Broadly, the IC50 is the concentration needed to halve the response being measured. A word on the inhibition: it is the drop in the measured response relative to a control, in per cent.

Active and inactive are the calls of the source. The rule behind the calls is not given here. A value given as a limit tells only on which side of the number the result lay.

The target of series [1] is Tyrosine-protein kinase Tec (Homo sapiens, UniProt P42680). In words: Inhibition of TEC (unknown origin).
For series [2], the target named is Tyrosine-protein kinase TXK (Homo sapiens, UniProt P42681). In words: Inhibition of human recombinant TXK using Ulight-Poly GAT[EAY(1:1:1) as substrate measured after 30 mins in the presence of ATP by LANCE method. On the technique in general: TR-FRET usually uses a lanthanide donor and a delayed reading to cut background.
The test system of series [3] is Mus musculus. In words: Antiarthritic activity in collagen-induced DBA1/J mouse arthritis model assessed as reduction injoint inflammation at 30 mg/kg or 60 mg/kg, po qd cotreated with ibrutinib at 12.5 mg/kg by micro CT analysis. It is filed as functional, organism-based.
The target of series [4] is T1, Tyrosine-protein kinase BTK (Homo sapiens, UniProt Q06187). In words: Inhibition of BTK auto phosphorylation at Tyr223 residue in human Ramos cells at 100 nM measured after 1 hr by Western blot analysis. It is filed as cell-based.
T1 sequence (Q06187 whole entry): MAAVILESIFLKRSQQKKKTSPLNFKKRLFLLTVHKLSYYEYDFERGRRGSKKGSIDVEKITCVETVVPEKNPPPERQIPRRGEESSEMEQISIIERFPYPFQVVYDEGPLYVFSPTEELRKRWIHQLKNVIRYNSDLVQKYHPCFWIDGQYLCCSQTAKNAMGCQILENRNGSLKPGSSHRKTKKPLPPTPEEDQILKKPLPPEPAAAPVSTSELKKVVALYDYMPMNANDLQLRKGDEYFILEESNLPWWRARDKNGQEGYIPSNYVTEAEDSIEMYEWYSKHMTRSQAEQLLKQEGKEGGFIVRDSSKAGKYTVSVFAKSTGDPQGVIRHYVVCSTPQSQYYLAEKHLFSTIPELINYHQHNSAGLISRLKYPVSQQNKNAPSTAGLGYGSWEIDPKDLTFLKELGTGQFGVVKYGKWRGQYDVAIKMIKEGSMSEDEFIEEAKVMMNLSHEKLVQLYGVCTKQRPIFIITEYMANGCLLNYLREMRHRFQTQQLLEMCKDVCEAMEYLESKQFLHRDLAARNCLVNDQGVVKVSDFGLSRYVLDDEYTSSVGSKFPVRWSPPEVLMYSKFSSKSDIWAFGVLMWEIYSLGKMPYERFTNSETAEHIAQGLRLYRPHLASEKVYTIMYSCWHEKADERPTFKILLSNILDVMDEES
In series [5] the target is Tyrosine-protein kinase JAK3 (Homo sapiens, UniProt P52333). In words: Inhibition of human recombinant JAK3 using Ulight-CAGAGAIETDKEYYTVKD measured after 60 mins in the presence of ATP by LANCE method.
Series [6] addresses Tyrosine-protein kinase ITK/TSK (Homo sapiens, UniProt Q08881). In words: Inhibition of human recombinant ITK using Ulight-TK peptide as substrate measured after 30 mins in the presence of ATP by LANCE method.
Series [7] deals with T1, Tyrosine-protein kinase BTK. In words: Inhibition of BTK auto phosphorylation at Tyr223 residue in human Daudi cells at 100 nM measured after 1 hr by Western blot analysis. It is filed as cell-based.
For series [8] the target is unchanged. In words: Inhibition of BTK (unknown origin) at 1 uM in the presence of ATP by caliper mobility shift assay relative to control.
In series [9] the target is Proto-oncogene tyrosine-protein kinase Src (Homo sapiens, UniProt P12931). In words: Inhibition of human recombinant SRC using Ulight-Poly GAT[EAY(1:1:1) as substrate measured after 10 mins in the presence of ATP by LANCE method.
Series [10] concerns Mus musculus. In words: Antiarthritic activity in DBA1/J mouse model of collagen-induced arthritis assessed as reduction in clinical arthritic score at 30 mg/kg to 60 mg/kg, po qd. It is filed as functional, organism-based.
In a further series the test system is Ramos. In words: Antiproliferative activity against human Ramos cells. The settings on record: Homo sapiens, Ramos. It is filed as functional, cell-based.
Series [11] concerns the target Receptor tyrosine-protein kinase erbB-2 (Homo sapiens, UniProt P04626). In words: Inhibition of human recombinant HER2 using biotinyl-beta amyloid beta amyloid beta AAEEEEYFELVAKKK measured after 10 mins in the presence of ATP by HTRF assay.
Series [12] deals with Mus musculus. In words: Antiarthritic activity in DBA1/J mouse model of collagen-induced arthritis assessed as reduction in cellular infiltration at 60 mg/kg, po qd by Safranin O-staining based assay. It is filed as functional, organism-based.
In series [13] the test system is Mus musculus. In words: Antiarthritic activity in DBA1/J mouse model of collagen-induced arthritis assessed as reduction in bone erosion at 30 mg/kg, po qd by H and E staining based assay. It is filed as functional, organism-based.
Series [14] has as its target Tyrosine-protein kinase Blk (Homo sapiens, UniProt P51451). In words: Inhibition of BLK (unknown origin).
Series [15] addresses T1, Tyrosine-protein kinase BTK. In words: Inhibition of BTK (unknown origin) at 0.1 uM in the presence of ATP by caliper mobility shift assay relative to control.
For series [16], the target named is Tyrosine-protein kinase HCK (Homo sapiens, UniProt P08631). In words: Inhibition of HCK (unknown origin).
Series [17] has as its system Mus musculus. In words: Antiarthritic activity in DBA1/J mouse model of collagen-induced arthritis assessed as reduction in joint damage at 60 mg/kg, po qd by H and E staining based assay. It is filed as functional, organism-based.
Series [18] deals with Tyrosine-protein kinase Fyn (Homo sapiens, UniProt P06241). In words: Inhibition of human recombinant FYN using biotinyl-beta amyloid beta amyloid beta AYQAEENTYDEYEN as substrate measured after 60 mins in the presence of ATP by HTRF assay.
The target in series [19] is T1, Tyrosine-protein kinase BTK. In words: Inhibition of BTK in human JeKo1 cells assessed as reduction in PLCgamma-2 phosphorylation at Try1217 residue at 1000 nM after1 hr by Western blot analysis. It is filed as cell-based.
Another series concerns Daudi. In words: Antiproliferative activity against human Daudi cells. It is filed as functional, cell-based. The settings on record: Homo sapiens, Daudi.
In series [20] the target is Epidermal growth factor receptor (Homo sapiens, UniProt P00533). In words: Inhibition of human recombinant EGFR using Ulight-CAGAGAIETDKEYYTVKD measured after 15 mins in the presence of ATP by LANCE method.
For series [21], the target named is T1, Tyrosine-protein kinase BTK. In words: Inhibition of BTK in human Daudi cells assessed as reduction in PLCgamma-2 phosphorylation at Try1217 residue at 1000 nM after1 hr by Western blot analysis. It is filed as cell-based. In general terms: A western blot detects proteins with antibodies after separation by electrophoresis.
The target of series [22] is Tyrosine-protein kinase Lyn (Homo sapiens, UniProt P07948). In words: Inhibition of human recombinant LYN using biotinyl-beta amyloid beta amyloid beta AKVEKIGEGTYGVVYK as substrate measured after 120 mins in the presence of ATP by HTRF assay.
Sequence of Tyrosine-protein kinase Lyn (P07948 whole entry): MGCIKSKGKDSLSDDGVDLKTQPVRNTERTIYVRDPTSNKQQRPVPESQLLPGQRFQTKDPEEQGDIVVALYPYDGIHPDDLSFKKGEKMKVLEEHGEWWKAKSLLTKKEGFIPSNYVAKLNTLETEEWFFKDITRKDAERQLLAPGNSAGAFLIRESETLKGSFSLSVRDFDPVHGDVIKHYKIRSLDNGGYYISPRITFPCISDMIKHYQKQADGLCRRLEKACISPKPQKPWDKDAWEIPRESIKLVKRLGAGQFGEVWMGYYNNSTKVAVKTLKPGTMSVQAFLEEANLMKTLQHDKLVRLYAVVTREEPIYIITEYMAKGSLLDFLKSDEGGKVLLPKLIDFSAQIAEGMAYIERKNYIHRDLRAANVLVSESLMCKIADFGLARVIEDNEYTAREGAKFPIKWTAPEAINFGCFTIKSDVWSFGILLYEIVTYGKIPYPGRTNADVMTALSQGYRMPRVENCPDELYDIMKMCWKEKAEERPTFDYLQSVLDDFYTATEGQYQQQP
Series [23] concerns the target T1, Tyrosine-protein kinase BTK. In words: Inhibition of BTK in human Ramos cells assessed as reduction in PLCgamma-2 phosphorylation at Try1217 residue at 1000 nM after1 hr by Western blot analysis. It is filed as cell-based.
In another series the test system is JeKo-1. In words: Antiproliferative activity against human JeKo1 cells. It is filed as functional, cell-based. The settings on record: Homo sapiens, JeKo-1.
In series [24] the target is T1, Tyrosine-protein kinase BTK. In words: Inhibition of BTK auto phosphorylation at Tyr223 residue in human JeKo1 cells at 100 nM measured after 1 hr by Western blot analysis. It is filed as cell-based.
Series [25] shares this target. In words: Inhibition of BTK (unknown origin) in the presence of ATP by caliper mobility shift assay.
The subject of series [26] is Mus musculus. In words: Antiarthritic activity in DBA1/J mouse model of collagen-induced arthritis assessed as reduction in reduction in paw thickness at 30 mg/kg to 60 mg/kg, po qd. It is filed as functional, organism-based.
The target of series [27] is Tyrosine-protein kinase Yes (Homo sapiens, UniProt P07947). In words: Inhibition of human recombinant YES using biotinyl-beta amyloid beta amyloid beta AYQAEENTYDEYEN as substrate measured after 30 mins in the presence of ATP by HTRF assay.
A short description of series [28]: Toxicity in DBA1/J mouse model of collagen-induced arthritis assessed as effect on body weight at 30 to 60 mg/kg, po qd. It is filed as organism-based. The settings on record: in vivo.
Series [29] addresses Tyrosine-protein kinase Fgr (Homo sapiens, UniProt P09769). In words: Inhibition of human recombinant FGR using Ulight-TK peptide as substrate measured after 60 mins in the presence of ATP by LANCE method.
For series [30], the target named is Receptor tyrosine-protein kinase erbB-4 (Homo sapiens, UniProt Q15303). In words: Inhibition of HER4 (unknown origin).
Sequence of Receptor tyrosine-protein kinase erbB-4 (Q15303 whole entry): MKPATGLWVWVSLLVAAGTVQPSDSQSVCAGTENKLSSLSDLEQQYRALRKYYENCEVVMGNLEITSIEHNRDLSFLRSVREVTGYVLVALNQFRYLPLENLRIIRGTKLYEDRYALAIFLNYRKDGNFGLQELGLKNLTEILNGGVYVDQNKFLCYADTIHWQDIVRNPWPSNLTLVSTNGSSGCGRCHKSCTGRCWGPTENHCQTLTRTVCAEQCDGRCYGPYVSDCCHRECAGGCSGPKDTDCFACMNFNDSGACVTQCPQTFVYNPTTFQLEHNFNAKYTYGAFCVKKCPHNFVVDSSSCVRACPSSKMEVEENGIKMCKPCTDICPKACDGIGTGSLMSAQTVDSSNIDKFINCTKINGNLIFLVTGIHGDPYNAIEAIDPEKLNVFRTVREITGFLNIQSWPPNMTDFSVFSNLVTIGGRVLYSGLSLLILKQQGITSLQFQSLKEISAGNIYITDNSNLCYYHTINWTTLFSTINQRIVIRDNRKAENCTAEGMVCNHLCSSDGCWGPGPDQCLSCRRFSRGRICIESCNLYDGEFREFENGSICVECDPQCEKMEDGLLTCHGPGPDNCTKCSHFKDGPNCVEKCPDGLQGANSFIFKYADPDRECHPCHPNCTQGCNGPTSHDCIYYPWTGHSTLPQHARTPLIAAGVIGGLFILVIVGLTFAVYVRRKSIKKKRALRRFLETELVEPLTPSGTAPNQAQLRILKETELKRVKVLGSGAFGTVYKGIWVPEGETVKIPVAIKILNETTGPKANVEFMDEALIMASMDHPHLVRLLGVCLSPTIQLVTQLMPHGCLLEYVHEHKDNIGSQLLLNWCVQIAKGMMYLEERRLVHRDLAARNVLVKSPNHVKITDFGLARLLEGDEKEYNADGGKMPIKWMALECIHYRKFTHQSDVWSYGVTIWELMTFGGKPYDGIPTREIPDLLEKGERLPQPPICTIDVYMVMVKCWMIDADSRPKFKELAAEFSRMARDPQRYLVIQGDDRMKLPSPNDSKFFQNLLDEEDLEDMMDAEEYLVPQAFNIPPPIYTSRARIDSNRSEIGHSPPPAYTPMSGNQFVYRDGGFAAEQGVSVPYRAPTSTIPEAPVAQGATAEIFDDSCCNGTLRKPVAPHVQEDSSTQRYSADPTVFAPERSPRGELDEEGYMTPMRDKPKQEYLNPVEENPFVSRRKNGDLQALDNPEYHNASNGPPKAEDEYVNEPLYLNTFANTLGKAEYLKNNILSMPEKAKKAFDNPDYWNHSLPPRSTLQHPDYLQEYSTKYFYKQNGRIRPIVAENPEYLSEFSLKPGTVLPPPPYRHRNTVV
For series [31], the system named is Mus musculus. In words: Antiarthritic activity in DBA1/J mouse model of collagen-induced arthritis assessed as reduction in cartilage damage at 30 mg/kg, po qd by H and E staining based assay. It is filed as functional, organism-based.
The subject of series [32] is Mus musculus. In words: Antiarthritic activity in DBA1/J mouse model of collagen-induced arthritis assessed as reduction in bone erosion at 60 mg/kg, po qd by micro-CT analysis. It is filed as functional, organism-based.
Series [33] addresses Cytoplasmic tyrosine-protein kinase BMX (Homo sapiens, UniProt P51813). In words: Inhibition of BMX (unknown origin).
For series [34], the target named is Tyrosine-protein kinase Lck (Homo sapiens, UniProt P06239). In words: Inhibition of human recombinant LCK using Ulight-Poly GAT[EAY(1:1:1) as substrate measured after 10 mins in the presence of ATP by LANCE method.
Sequence of Tyrosine-protein kinase Lck (P06239 whole entry): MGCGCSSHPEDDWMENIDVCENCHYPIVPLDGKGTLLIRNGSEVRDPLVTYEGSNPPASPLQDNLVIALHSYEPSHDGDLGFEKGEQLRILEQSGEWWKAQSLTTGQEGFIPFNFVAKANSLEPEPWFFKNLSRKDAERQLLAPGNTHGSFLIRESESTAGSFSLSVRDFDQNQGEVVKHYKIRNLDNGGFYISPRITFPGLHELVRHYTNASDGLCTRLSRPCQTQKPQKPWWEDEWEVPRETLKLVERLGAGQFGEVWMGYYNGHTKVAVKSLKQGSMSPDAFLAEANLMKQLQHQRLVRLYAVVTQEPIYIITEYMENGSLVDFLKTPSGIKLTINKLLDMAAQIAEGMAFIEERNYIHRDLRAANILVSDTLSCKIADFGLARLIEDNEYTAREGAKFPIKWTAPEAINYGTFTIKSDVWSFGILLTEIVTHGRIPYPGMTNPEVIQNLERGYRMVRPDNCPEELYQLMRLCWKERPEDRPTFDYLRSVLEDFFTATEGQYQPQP
The test system of series [35] is Mus musculus. In words: Antiarthritic activity in DBA1/J mouse model of collagen-induced arthritis assessed as reduction in cartilage damage at 12.5 mg/kg, po qd by H and E staining based assay. It is filed as functional, organism-based.
Series [36] has as its system Mus musculus. In words: Antiarthritic activity in DBA1/J mouse model of collagen-induced arthritis assessed as reduction in bone erosion at 12.5 mg/kg, po qd by H and E staining based assay. It is filed as functional, organism-based.

Sequence of Receptor tyrosine-protein kinase erbB-2 (P04626 whole entry): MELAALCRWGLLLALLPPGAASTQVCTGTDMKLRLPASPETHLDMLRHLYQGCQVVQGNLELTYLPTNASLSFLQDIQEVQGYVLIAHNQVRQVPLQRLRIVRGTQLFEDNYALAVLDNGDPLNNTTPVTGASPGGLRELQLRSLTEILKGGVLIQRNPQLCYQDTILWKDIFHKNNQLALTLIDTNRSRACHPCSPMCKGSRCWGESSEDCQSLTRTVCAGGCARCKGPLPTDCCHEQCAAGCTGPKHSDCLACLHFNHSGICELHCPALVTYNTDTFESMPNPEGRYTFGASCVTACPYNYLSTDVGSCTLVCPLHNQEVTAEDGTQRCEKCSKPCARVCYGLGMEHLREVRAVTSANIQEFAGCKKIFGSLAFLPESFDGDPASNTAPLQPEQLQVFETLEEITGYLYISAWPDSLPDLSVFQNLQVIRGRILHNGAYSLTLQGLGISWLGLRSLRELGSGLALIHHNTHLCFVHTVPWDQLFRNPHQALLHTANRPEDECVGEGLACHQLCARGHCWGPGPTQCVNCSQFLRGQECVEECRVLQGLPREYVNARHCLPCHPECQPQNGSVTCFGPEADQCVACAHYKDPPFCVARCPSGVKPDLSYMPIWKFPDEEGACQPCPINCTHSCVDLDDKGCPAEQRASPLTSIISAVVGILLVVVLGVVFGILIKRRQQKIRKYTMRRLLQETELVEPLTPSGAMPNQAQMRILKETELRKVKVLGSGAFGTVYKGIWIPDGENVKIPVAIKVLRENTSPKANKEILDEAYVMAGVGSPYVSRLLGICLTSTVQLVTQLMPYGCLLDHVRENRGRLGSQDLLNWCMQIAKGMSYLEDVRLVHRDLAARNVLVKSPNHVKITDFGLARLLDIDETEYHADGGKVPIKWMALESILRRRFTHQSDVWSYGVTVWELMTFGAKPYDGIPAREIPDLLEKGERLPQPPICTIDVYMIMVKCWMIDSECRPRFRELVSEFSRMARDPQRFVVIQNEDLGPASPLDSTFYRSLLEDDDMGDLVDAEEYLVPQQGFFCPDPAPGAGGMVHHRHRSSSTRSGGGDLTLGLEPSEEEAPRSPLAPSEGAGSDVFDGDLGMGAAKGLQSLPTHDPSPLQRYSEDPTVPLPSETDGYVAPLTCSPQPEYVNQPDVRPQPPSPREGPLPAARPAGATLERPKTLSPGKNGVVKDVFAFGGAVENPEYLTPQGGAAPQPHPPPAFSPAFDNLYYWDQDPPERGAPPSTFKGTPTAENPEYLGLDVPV
Sequence of Tyrosine-protein kinase Blk (P51451 whole entry): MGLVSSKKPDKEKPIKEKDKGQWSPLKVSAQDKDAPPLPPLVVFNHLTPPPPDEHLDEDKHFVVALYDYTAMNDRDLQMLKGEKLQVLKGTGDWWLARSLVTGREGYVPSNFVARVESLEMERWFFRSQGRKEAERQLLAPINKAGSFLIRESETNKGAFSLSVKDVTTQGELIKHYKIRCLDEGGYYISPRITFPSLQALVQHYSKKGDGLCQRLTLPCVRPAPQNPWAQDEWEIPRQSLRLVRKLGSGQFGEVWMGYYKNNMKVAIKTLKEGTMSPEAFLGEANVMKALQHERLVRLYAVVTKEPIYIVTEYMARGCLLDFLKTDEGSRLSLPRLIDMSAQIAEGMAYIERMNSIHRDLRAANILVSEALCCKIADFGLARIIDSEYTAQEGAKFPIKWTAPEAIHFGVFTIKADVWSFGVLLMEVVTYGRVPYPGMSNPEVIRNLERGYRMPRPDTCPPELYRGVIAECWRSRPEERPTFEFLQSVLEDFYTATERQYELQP

As for `Nc1ncnc2c1c(-c1ccc(Oc3ccccc3)cc1)cn2C[C@H]1CCCN1C[C@@H]1CO1`, the concentration for half-maximal inhibition (IC50) in series [1] was 44 nM; in series [2], 358 nM; in series [5], over 1000 nM; in series [6], over 1000 nM; in series [9] it was 123 nM; with Ramos, 8520 nM. In addition, the half-inhibitory concentration (IC50) in series [11] was over 1000 nM; in series [14], 10 nM; in series [16] it was 33 nM; in [18] it was 232 nM; with Daudi, 7040 nM; in [20] it was over 1000 nM. The concentration for half-maximal inhibition (IC50) in series [22] is 10 nM; in the series on JeKo-1, 11100 nM; in [25], 3 nM; in series [27], 86 nM; in [29], 28 nM; in series [30], 385 nM. Besides, the IC50 in [33] was 83 nM; in series [34], 31 nM. Moreover, the Activity entry with Mus musculus [3] is “Dose-dependent effect”; in the series with Mus musculus [10], “Dose-dependent effect”; with Mus musculus [26] it was “Dose-dependent effect”; in series [28] it was “Non-Toxic”. The inhibition result in series [4], in series [7], in [19], in [21], in series [23] and in series [24] was “Active” each time. In addition, the inhibition in [8] was 99.8%; in series [15] it was 96.6%. For the same compound, the result with Mus musculus [12], with Mus musculus [13], in the series on Mus musculus [17], with Mus musculus [31] and in the series with Mus musculus [32] was Active.

For the compound `C=CC(=O)N1CCC[C@@H](n2nc(-c3ccc(Oc4ccccc4)cc3)c3c(N)ncnc32)C1` [IBRUTINIB], the IC50 is 5010 nM in the series on Ramos, 3920 nM in the series with Daudi and 1050 nM with JeKo-1. The result with Mus musculus [35] was inactive. Moreover, the outcome in the series on Mus musculus [36] was Active.

Source of the values: ChEMBL document CHEMBL4346659, “Design, synthesis and evaluation of novel 7H-pyrrolo[2,3-d]pyrimidin-4-amine derivatives as potent, selective and reversible Bruton's tyrosine kinase (BTK) inhibitors for the treatment of rheumatoid arthritis” (Eur J Med Chem, 2019).
